Measurements: ChEMBL document CHEMBL1201862, “PubChem BioAssay data set” (2004)
The source made the active and inactive calls.

Assays:
[1] = target: DNA damage-inducible transcript 3 protein (Mus musculus, UniProt P35639); assay type: functional, Cricetulus griseus
[2] = target: T1, G-protein coupled receptor 55 (Homo sapiens, UniProt Q9Y2T6); experiment: GPR55 agonists via beta-arrestin recruitment, primary screen, imaging, U2OS cells, beta-arrestin-GFP redistribution (AID 1961); assay type: functional
Hexokinase = Hexokinase (Trypanosoma brucei, UniProt Q38C41); experiment: Confirmation assay for inhibitors of Trypanosoma brucei hexokinase 1-Analogue-first series. [Related pubchem assays (depositor defined):AID1430, AID1632, AID2516, AID2560, AID2579, AID2600, AID449725, AID492951]; assay type: functional
[3] = target: T2, Mannose-6-phosphate isomerase (Homo sapiens, UniProt P34949); experiment: PMI enzyme inhibitors, confirmation, biochemical, fluorescence intensity (AID 1535)
T2 sequence (P34949 whole entry): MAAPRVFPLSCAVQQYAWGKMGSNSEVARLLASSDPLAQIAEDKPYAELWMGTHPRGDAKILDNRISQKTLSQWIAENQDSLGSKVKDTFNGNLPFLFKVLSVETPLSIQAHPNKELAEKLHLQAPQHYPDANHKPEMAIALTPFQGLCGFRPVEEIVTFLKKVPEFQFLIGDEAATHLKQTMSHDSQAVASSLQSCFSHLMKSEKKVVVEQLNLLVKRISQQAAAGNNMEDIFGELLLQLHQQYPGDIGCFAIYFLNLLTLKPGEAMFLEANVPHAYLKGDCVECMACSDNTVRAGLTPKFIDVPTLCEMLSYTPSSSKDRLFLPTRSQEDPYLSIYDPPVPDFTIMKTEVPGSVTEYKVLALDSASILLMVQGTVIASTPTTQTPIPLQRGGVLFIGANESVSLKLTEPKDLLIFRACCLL

Phosphomannomutase 2 = Phosphomannomutase 2 (Homo sapiens, UniProt O15305); experiment: Counter screen SAR assay for PMM2 inhibitors via a fluorescence intensity assay. [Related pubchem assays (depositor defined):AID1545, AID1574]
[4] = Intein inhibitors as potential Tuberculosis drugs, a cytotoxicity screen. [Related pubchem assays (depositor defined):AID2221, AID2223, AID434968, AID435010, AID449749, AID449750, AID489010]; assay type: functional
[5] = target: T3, Replicative DNA helicase DnaB (Mycobacterium tuberculosis, UniProt P9WMR3); experiment: DnaB intein splicing inhibitors, dose response, biochemical, cell-free fluorescence (AID 449749); assay type: functional
T3 sequence (P9WMR3 whole entry): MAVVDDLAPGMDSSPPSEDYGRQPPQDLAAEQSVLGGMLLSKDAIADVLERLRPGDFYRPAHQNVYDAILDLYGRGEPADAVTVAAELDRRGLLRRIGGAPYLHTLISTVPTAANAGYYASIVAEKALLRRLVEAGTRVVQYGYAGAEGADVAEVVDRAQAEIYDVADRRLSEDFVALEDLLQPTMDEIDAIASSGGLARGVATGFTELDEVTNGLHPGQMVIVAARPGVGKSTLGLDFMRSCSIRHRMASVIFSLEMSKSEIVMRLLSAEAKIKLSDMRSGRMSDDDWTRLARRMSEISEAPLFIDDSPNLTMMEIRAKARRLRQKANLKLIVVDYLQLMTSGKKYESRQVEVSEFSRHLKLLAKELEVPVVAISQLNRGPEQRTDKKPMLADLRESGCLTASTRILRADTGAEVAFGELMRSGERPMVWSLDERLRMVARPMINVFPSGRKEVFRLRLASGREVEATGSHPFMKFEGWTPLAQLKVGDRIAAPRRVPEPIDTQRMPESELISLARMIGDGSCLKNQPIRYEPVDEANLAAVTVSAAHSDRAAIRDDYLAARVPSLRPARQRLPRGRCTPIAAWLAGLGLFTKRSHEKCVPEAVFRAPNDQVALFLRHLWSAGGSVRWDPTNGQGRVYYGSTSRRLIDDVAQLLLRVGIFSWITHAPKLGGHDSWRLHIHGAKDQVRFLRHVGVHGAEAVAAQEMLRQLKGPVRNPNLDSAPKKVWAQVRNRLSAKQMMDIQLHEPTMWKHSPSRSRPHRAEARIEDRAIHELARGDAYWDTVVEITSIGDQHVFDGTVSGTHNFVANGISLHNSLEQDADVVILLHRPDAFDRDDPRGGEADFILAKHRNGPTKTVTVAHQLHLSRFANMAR

Protein RecA = target: T4, Protein RecA (Mycobacterium tuberculosis, UniProt P9WHJ3); experiment: Fluorescence Cell-Free Homogeneous Dose Retest to Identify Inhibitors of RecA-Intein Splicing Activity. [Related pubchem assays (depositor defined):AID2097, AID2223, AID489010, AID492950]; assay type: functional
T4 sequence (P9WHJ3 whole entry): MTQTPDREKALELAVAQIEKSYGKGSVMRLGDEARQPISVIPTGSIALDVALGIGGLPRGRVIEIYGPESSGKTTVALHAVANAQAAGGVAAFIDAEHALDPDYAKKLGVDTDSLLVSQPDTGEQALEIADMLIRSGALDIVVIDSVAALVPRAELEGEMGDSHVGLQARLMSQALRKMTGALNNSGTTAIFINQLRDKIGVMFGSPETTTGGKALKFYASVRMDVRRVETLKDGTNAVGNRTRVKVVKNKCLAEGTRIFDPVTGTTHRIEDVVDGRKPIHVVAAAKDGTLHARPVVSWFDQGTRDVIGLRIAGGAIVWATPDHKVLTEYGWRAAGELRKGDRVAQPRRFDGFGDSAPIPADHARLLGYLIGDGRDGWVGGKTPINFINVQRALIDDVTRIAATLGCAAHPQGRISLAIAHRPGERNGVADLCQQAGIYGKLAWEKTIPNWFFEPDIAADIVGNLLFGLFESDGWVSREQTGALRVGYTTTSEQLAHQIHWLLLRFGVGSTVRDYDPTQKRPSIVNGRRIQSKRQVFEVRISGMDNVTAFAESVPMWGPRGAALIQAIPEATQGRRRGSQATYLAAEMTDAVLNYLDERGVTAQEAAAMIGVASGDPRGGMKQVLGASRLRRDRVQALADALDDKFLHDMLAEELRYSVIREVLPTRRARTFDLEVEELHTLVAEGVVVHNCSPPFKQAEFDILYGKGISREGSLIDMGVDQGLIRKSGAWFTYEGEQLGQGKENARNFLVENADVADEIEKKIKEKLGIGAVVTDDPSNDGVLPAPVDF

Melanocortin receptor 4 = Melanocortin receptor 4 (Homo sapiens, UniProt P32245); assay type: functional, cell-based;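 also: Cell-based assay with luminescence read-out, confirmatory dose-response testing for agonist activity of biased ligands at MC4R; human U2OS cells with tagged receptor and beta-arrestin; potency of agonists that increase receptor coupling to beta-arrestin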
[6] = target: T5, Type-1 angiotensin II receptor (Homo sapiens, UniProt P30556); experiment: AT1 receptor agonists, dose response, selectivity assay for APJ receptor agonist project, cell-based, uHTS hits (AID 488865); assay type: functional;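 also: beta-arrestin recruitment to AT1 measured by enzyme fragment complementation luminescence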
T5 sequence (P30556 whole entry): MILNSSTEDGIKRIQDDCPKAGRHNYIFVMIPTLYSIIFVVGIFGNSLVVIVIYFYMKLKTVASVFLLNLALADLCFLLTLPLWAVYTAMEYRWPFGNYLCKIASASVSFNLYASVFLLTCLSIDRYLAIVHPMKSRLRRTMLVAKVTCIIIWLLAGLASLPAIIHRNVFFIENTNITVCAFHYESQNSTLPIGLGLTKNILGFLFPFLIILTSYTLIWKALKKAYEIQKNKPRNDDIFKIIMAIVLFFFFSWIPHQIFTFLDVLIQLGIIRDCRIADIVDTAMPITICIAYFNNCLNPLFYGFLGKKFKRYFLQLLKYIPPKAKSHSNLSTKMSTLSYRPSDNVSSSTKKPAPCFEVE

Saccharomyces cerevisiae = experiment: NALP1 inhibitor project selectivity study, Caspase-1/ASC signal blockade IC50 in S. cerevisiae (AID 488863); assay type: functional, organism-based
[7] = Luminescence Cell-Based Dose Retest to Confirm Inhibitors of Cancer Stem Cells. [Related pubchem assays (depositor defined):AID2717, AID2721]; assay type: functional; conditions: Homo sapiens
[8] = target: NACHT, LRR and PYD domains-containing protein 1 (Homo sapiens, UniProt Q9C000); experiment: NALP1 inhibitors in yeast, dose response, luminescent (AID 488860); assay type: functional
Beta-galactosidase = Beta-galactosidase (Escherichia coli, UniProt Q8VNN2); experiment: beta-galactosidase enzyme inhibitors and activators, dose response, artefact control for CCR6 antagonist project, biochemical, E. coli enzyme, set 3 (AID 504712); assay type: functional
[9] = target: Heat shock protein HSP 90-alpha (Homo sapiens, UniProt P07900); assay type: functional, organism-based
Cannabinoid receptor 2 [10] = target: T6, Cannabinoid receptor 2 (Homo sapiens, UniProt P34972); experiment: SAR analysis of antagonists of the Cannabinoid Receptor 2 using an Image-Based Assay - Set 2. [Related pubchem assays (depositor defined):AID1961, AID1965]; assay type: functional
[11] = target: T1, G-protein coupled receptor 55; experiment: SAR analysis of selective Agonists of GPR55 using an Image-Based Assay - Set 2. [Related pubchem assays (depositor defined):AID1961, AID1965]; assay type: functional
Cannabinoid receptor 2 [12] = target: T6, Cannabinoid receptor 2; experiment: SAR analysis of agonists of the Cannabinoid Receptor 2 using an Image-Based Assay - Set 2. [Related pubchem assays (depositor defined):AID1961, AID1965]; assay type: functional
[13] = target: T7, G-protein coupled receptor 35 (Homo sapiens, UniProt Q9HC97); experiment: SAR analysis of Agonists of the GPR35 Receptor using an Image-Based Assay - Set 3. [Related pubchem assays (depositor defined):AID1961, AID1965]; assay type: functional
Cannabinoid receptor 1 [14] = target: T8, Cannabinoid receptor 1 (Homo sapiens, UniProt P21554); experiment: SAR analysis of antagonists of the Cannabinoid Receptor 1 using an Image-Based Assay - Set 3. [Related pubchem assays (depositor defined):AID1961, AID1965]; assay type: functional
Cannabinoid receptor 1 [15] = target: T8, Cannabinoid receptor 1; experiment: SAR analysis of agonists of the Cannabinoid Receptor 1 using an Image-Based Assay - Set 3. [Related pubchem assays (depositor defined):AID1961, AID1965]; assay type: functional
[16] = target: T7, G-protein coupled receptor 35; experiment: SAR analysis of Antagonists of the GPR35 Receptor using an Image-Based Assay - Set 4. [Related pubchem assays (depositor defined):[…]]; assay type: functional
Mu-type opioid receptor = Mu-type opioid receptor (Homo sapiens, UniProt P35372); experiment: SAR Analysis of Antagonists of the MOR Receptor using an Image-Based Assay - Set 3. [Related pubchem assays (depositor defined):AID1777, AID1785, AID1786, AID1966, AID2133, AID2136, AID2284, AID2285, AID2420]; assay type: functional
[17] = target: T9, Kappa-type opioid receptor (Homo sapiens, UniProt P41145); experiment: SAR analysis of small molecule antagonists of the kappa opioid receptor via a luminescent beta-arrestin assay - Set 4. [Related pubchem assays (depositor defined):AID1777, AID1778, AID1785, AID1786, AID1966, AID2133, AID2136, AID2285]; assay type: functional
[18] = target: Delta-type opioid receptor (Homo sapiens, UniProt P41143); experiment: SAR Analysis of Antagonists of the DOR Receptor using an Image-Based Assay - Set 3. [Related pubchem assays (depositor defined):AID1777, AID1785]; assay type: functional;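 also: U2OS cells expressing DOR1 and beta-arrestin GFP stimulated with 100 nM SNC80; imaging of GFP-tagged beta-arrestin moving into spots after receptor activation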
[19] = target: T9, Kappa-type opioid receptor; experiment: SAR analysis of Antagonists of the Kappa Opioid Receptor (KOR) using an Image-Based Assay - Set 4. [Related pubchem assays (depositor defined):AID1777, AID1785]; assay type: functional
[20] = target: Voltage-dependent T-type calcium channel subunit alpha-1H (Homo sapiens, UniProt O95180); experiment: Cav3.2 T-type channel inhibitors, cell-based, synthetic library set 1, calcium flux (AID 493022); assay type: functional
Coagulation factor XII = Coagulation factor XII (Homo sapiens, UniProt P00748); assay type: functional;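 also: activated factor XIIa alpha cleaving a fluorogenic AMC peptide substrate; inhibitor potency from loss of enzyme activity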
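For CC50 in this document: cells exposed to compound for 72 hours before luminescence readout.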

T1 sequence (Q9Y2T6 whole entry): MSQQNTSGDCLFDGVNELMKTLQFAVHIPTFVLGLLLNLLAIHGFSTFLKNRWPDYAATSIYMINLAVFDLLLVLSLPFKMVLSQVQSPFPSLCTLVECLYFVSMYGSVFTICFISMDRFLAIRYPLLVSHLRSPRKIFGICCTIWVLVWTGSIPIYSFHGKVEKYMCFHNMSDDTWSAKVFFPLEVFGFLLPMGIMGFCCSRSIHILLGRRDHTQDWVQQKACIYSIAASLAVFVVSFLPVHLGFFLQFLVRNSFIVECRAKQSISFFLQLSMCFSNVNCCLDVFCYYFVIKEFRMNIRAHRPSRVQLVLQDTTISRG
T8 sequence (P21554 whole entry): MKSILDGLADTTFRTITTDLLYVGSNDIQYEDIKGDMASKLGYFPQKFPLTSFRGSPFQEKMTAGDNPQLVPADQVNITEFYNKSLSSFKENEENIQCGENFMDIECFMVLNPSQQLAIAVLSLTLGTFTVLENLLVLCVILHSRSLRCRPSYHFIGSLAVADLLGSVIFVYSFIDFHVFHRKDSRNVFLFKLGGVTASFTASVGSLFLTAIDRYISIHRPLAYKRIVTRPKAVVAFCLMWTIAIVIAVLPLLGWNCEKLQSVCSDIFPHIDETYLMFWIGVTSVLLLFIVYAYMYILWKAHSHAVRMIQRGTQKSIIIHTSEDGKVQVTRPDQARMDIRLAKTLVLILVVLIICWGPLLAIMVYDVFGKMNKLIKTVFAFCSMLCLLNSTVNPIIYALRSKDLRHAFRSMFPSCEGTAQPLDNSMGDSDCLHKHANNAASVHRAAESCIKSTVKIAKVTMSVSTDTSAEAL
T9 sequence (P41145 whole entry): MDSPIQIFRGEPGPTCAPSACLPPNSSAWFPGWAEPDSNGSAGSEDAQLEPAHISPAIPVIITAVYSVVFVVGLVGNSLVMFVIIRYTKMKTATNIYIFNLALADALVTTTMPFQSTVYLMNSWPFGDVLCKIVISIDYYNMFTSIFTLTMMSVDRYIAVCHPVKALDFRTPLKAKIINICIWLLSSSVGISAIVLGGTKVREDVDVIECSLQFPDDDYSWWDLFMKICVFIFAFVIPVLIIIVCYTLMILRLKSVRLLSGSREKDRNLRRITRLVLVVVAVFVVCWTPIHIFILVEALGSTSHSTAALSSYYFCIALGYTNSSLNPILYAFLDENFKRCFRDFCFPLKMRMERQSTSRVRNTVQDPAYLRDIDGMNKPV
T6 sequence (P34972 whole entry): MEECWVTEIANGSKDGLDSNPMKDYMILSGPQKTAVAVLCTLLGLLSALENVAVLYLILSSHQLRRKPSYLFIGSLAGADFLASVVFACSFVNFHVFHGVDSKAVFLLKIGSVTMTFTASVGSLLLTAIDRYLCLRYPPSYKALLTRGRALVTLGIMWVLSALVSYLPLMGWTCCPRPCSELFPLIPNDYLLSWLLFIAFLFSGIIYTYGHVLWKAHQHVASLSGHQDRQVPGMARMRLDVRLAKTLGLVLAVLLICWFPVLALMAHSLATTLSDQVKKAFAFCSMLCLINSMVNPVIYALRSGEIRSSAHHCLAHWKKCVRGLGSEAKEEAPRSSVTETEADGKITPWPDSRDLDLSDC
T7 sequence (Q9HC97 whole entry): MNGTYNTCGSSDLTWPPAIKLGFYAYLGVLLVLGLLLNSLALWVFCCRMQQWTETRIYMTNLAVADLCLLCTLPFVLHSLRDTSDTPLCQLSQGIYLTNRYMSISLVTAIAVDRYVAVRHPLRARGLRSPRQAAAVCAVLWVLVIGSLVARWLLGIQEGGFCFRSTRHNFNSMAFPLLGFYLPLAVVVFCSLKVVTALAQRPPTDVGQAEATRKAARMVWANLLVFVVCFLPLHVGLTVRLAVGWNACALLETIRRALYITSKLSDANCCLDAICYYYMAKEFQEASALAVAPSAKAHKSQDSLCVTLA
Sequence of Beta-galactosidase (Q8VNN2 whole entry): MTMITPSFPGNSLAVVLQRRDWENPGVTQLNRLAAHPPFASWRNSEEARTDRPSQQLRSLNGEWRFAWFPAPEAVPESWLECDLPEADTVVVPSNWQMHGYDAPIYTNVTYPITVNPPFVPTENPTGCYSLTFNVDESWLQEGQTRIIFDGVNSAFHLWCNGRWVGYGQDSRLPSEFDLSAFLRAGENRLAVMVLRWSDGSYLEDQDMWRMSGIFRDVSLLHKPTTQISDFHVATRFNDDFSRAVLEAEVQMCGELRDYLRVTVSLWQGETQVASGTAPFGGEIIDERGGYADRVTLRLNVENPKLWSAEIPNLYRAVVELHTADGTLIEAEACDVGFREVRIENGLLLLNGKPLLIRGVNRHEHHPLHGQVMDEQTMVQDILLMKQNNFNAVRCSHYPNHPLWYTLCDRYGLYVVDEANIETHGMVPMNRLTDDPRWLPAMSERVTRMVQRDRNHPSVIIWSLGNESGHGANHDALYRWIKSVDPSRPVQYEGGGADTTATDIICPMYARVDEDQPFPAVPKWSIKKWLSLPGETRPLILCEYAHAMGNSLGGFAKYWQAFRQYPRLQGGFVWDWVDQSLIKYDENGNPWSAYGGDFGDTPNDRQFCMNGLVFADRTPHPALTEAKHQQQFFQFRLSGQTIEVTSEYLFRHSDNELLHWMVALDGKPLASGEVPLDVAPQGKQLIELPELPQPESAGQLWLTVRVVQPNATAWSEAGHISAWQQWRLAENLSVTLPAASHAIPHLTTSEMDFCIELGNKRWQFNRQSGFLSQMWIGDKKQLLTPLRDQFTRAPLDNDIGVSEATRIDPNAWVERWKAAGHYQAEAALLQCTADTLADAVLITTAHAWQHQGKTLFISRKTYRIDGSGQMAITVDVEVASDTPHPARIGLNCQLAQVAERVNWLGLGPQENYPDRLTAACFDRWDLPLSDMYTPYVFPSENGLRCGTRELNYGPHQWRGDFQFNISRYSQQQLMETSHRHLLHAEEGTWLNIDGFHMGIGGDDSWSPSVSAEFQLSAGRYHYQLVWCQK
Sequence of Phosphomannomutase 2 (O15305 whole entry): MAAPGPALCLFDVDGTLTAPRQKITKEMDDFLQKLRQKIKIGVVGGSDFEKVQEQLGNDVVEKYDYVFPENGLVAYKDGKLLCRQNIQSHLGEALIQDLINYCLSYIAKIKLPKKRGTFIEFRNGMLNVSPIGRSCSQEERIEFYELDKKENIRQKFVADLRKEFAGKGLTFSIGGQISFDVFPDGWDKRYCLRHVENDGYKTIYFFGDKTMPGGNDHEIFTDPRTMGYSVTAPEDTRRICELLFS
Sequence of NACHT, LRR and PYD domains-containing protein 1 (Q9C000 1-1212 limits assumed): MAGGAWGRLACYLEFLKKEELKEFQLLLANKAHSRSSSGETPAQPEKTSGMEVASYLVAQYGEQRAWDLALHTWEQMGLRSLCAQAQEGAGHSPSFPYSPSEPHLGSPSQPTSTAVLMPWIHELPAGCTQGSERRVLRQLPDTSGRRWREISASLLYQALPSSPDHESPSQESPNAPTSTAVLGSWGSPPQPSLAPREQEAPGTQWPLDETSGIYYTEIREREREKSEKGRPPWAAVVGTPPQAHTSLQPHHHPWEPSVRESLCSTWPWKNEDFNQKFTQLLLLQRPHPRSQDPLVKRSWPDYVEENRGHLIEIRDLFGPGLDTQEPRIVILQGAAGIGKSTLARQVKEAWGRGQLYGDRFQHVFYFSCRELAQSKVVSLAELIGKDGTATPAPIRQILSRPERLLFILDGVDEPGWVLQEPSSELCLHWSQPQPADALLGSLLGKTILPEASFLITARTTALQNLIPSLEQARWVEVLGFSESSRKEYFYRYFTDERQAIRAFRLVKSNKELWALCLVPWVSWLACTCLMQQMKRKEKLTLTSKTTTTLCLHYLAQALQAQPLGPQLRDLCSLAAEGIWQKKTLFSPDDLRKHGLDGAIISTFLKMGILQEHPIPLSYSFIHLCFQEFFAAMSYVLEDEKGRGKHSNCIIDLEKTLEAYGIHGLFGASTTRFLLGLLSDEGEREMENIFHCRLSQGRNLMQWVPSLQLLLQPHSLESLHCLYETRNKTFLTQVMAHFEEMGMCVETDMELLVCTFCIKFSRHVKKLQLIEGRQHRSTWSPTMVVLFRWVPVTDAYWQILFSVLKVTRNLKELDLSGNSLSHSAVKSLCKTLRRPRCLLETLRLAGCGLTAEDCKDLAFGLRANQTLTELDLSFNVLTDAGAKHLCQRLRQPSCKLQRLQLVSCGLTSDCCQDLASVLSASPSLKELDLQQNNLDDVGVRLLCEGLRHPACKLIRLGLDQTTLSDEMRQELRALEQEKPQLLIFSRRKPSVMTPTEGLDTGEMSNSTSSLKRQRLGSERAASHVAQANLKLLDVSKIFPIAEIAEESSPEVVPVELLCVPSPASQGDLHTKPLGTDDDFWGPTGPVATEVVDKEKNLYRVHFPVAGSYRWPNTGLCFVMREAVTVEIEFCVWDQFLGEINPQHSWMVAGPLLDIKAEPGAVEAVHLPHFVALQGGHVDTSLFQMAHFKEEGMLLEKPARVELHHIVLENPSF
Sequence of NACHT, LRR and PYD domains-containing protein 1 (Q9C000 1213-1473 limits assumed): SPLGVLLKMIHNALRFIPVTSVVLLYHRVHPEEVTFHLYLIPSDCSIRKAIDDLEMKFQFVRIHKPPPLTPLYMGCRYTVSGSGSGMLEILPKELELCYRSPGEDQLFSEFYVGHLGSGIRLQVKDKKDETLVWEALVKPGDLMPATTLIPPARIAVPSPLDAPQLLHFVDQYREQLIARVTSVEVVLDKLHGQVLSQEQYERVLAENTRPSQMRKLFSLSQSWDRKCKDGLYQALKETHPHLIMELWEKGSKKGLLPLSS
Sequence of Delta-type opioid receptor (P41143 whole entry): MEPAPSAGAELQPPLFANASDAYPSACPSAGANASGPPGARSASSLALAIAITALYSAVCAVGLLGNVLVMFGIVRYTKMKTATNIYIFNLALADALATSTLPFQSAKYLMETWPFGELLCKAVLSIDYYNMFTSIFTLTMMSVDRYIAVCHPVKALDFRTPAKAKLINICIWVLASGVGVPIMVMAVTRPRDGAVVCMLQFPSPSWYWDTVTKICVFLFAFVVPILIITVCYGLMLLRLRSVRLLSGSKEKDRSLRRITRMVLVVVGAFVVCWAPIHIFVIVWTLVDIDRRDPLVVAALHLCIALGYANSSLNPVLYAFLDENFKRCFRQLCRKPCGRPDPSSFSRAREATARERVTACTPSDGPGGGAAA

CC(C)(C)C1C/C(=C/c2ccco2)C(=O)/C(=C/c2ccco2)C1 (stereo not drawn)
Absolute IC50 (CHOP) [1]: < 10 µM

CCCc1ccc2oc(C(=O)N(Cc3ccncc3)CC3CCCO3)c(C)c2c1 (stereo not drawn)
EC50 [2]: 11.2 µM (inactive)

O=c1c2cc(N3CCOCC3)ccc2sn1-c1ccccc1
IC50 (Hexokinase): 4.46 µM (active)

COc1ccc(C/N=c2\ssnc2Cl)cc1
IC50 [3]: 15.5 µM (active)
IC50 (Phosphomannomutase 2): > 100 µM (inactive)

Cc1ccc(Sc2ccc(NC(=O)CCl)cc2)cc1C
CC50 [4]: 7.87 µM (active)
AC50 [5]: 2.51 µM (active)
EC50 (Protein RecA): 0.716 µM (active)
EC50 (Melanocortin receptor 4): > 89.2 µM (inactive)

CCOc1cc2[nH]c(=S)n(CCN3CCC(C)CC3)c(=O)c2cc1OCC
EC50 [6]: > 100 µM (inactive)

Cc1cc(N2C(=O)C=CC2=O)c([N+](=O)[O-])cc1C
IC50 (Saccharomyces cerevisiae): 23.9 µM (active)
AC50 [7]: 4.18 µM (active)
IC50 [8]: 17.7 µM (active)
IC50 (Beta-galactosidase): > 66.6 µM (inactive)
AC50 [9]: 1.07 µM (active)

COc1ccc(S(=O)(=O)N2CCOCC2)cc1NC(=O)c1cc2c(s1)CCCCC2
IC50 (Cannabinoid receptor 2 [10]): > 32 µM (inactive)
EC50 [11]: > 32 µM (inactive)
EC50 (Cannabinoid receptor 2 [12]): > 32 µM (inactive)
EC50 [13]: > 32 µM (inactive)
IC50 (Cannabinoid receptor 1 [14]): 20.6 µM (inactive)
EC50 (Cannabinoid receptor 1 [15]): > 32 µM (inactive)
IC50 [16]: > 32 µM (inactive)

Cc1ccc(S(=O)(=O)NCc2ccc(C(=O)NC3CCN(Cc4ccccc4)CC3)cc2)cc1
IC50 (Mu-type opioid receptor): > 32 µM (inactive)
IC50 [17]: > 20 µM (inactive)
IC50 [18]: > 32 µM (inactive)
IC50 [19]: > 32 µM (inactive)

Cc1ccc(-c2nnc(NC(=O)COc3ccc(F)cc3Cl)o2)cc1C
EC50 [20]: 1.1 µM (active)

Cc1cc(=O)oc2cc(OC(=O)CCN3C(=O)c4ccccc4C3=O)ccc12
IC50 (Coagulation factor XII): > 50 µM (inactive)
